Our source for the IC50, melting point and inhibition values is patent US8263606B2 (Xenon Pharmaceuticals Inc., priority 2008, dated 2012).

SMILES strings stand for the structures.

Series [1] concerns sodium channel. The series is described as follows: Guanidine influx assay (14C-guanidine radiotracer flux, in vitro). The series is classed as cell-based, human or rat. The settings on record: guanidine influx assay using a known cell line that expresses a sodium channel. The essentials:
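Cells stably expressing human or rat sodium channels (~100,000/well, 20–24 h) were exposed in low-sodium choline buffer to test agent plus aconitine activator and 14C-guanidine at ambient temperature. Intracellular 14C-guanidine was counted by scintillation; IC50 fitted by 4-parameter logistic over half-dilutions around 1 μM.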

The target of series [2] is CYP3A4 (Homo sapiens, UniProt P08684). The series is described as follows: Cytochrome P450 (CYP450) Inhibition Assay, CYP3A4 (Vivid fluorescence, BOMCC substrate). The settings on record: human, P450 Baculosomes (recombinant CYP3A4), probe BOMCC (Vivid substrate).
CYP3A4, sequence (P08684 whole entry): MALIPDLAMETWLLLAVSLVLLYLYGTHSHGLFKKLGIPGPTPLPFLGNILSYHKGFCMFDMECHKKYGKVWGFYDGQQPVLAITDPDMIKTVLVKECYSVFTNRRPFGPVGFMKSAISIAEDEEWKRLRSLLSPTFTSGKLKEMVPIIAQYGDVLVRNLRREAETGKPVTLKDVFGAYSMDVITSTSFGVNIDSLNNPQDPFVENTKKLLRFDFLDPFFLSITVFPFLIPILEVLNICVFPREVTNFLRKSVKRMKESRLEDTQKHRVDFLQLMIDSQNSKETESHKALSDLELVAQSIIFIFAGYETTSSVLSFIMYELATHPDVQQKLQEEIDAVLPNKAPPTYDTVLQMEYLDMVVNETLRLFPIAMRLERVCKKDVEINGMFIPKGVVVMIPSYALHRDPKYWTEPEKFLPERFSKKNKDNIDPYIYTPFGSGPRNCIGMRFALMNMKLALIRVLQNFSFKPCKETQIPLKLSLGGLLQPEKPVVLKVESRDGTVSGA

Broadly, the IC50 is the concentration at which inhibition is half-maximal. As usually defined, the melting point is the temperature, or range, at which the solid turns liquid. As a reminder, the inhibition is the change of the read-out against control, counted positive when it falls. As to `NC(=O)c1ccc2c(c1)C1(COc3cc4c(cc31)OCCO4)C(=O)N2Cc1ccccn1` (stereo not drawn) [Example 31, 2′-oxo-1′-(pyridin-2-ylmethyl)-1′,2,2′,3-tetrahydrospiro[furo[2,3-g][1,4]benzodioxine-8,3′-indole]-5′-carboxamide], the melting point was 220 to 222 °C. Besides, the IC50 in series [1] lay in the range of 100 to 1000 nM. Further, the inhibition at 10 µM in series [2] is < 50%.

On to `O=C1N(Cc2ccc(N3CCOCC3)nc2)c2ccccc2C12COc1cc3c(cc12)OCCO3` (stereo not drawn) [Example 32, 1′-[(6-morpholin-4-ylpyridin-3-yl)methyl]-2,3-dihydrospiro[furo[2,3-g][1,4]benzodioxine-8,3′-indol]-2′(1′H)-one], for which the melting point lay in the range of 117 to 119 °C. In addition, the IC50 in series [1] lay in the range of 1 to 100 nM. Further, the inhibition at 10 µM in series [2] is > 50%.

The compound `CN(C)c1ccc(CN2C(=O)C3(COc4cc5c(cc43)OCCO5)c3ccccc32)cn1` (stereo not drawn) [Example 32.1, 1′-{[6-(dimethylamino)pyridin-3-yl]methyl}-2,3-dihydrospiro[furo[2,3-g][1,4]benzodioxine-8,3′-indol]-2′(1′H)-one] had a melting point of 93 to 95 °C. Further, the IC50 in series [1] was in the range of 1 to 100 nM. For the same compound, in series [2], the inhibition at 10 µM was < 50%.

Turning to `CN(C)c1cccc(CN2C(=O)C3(COc4cc5c(cc43)OCCO5)c3ccccc32)n1` (stereo not drawn) [Example 32.2, 1-{[6-(dimethylamino)pyridin-2-yl]methyl}-2,3-dihydrospiro[furo[2,3-g][1,4]benzodioxine-8,3′-indol]-2′(1′H)-one], the melting point was in the range of 196 to 197 °C. Besides, the IC50 in series [1] lay in the range of 1 to 100 nM. The inhibition at 10 µM in series [2] is > 50%.

`O=C1N(Cc2ccc(N3CCOCC3)cn2)c2ccccc2C12COc1cc3c(cc12)OCCO3` (stereo not drawn) [Example 33.3, 1′-[(5-morpholin-4-ylpyridin-2-yl)methyl]-2,3-dihydrospiro[furo[2,3-g][1,4]benzodioxine-8,3′-indol]-2′(1′H)-one]: the melting point lay in the range of 204 to 206 °C. Further, the IC50 in series [1] lay in the range of 100 to 1000 nM. The inhibition at 10 µM in series [2] was < 50%.

In turn, `CN(C)c1ccc(CN2C(=O)C3(COc4cc5c(cc43)OCCO5)c3ccccc32)nc1` (stereo not drawn) [Example 33.4, 1′-{[5-(dimethylamino)pyridin-2-yl]methyl}-2,3-dihydrospiro[furo[2,3-g][1,4]benzodioxine-8,3′-indol]-2′(1′H)-one] returned a melting point of 229 to 236 °C. In addition, the IC50 in series [1] fell in the range of 1 to 100 nM. Besides, the inhibition at 10 µM in series [2] was > 50%.

Take `O=C1N(Cc2ccc(=O)[nH]c2)c2ccccc2C12COc1cc3c(cc12)OCCO3` (stereo not drawn) [Example 35, 1′-[(6-oxo-1,6-dihydropyridin-3-yl)methyl]-2,3-dihydrospiro[furo[2,3-g][1,4]benzodioxine-8,3′-indol]-2′(1′H)-one]: the melting point lay in the range of 249 to 250 °C. In addition, the IC50 in series [1] lay in the range of 100 to 1000 nM. Moreover, the inhibition at 10 µM in series [2] is < 50%.

In the case of `O=C1N(Cc2cnc(O)nc2)c2ccccc2C12COc1cc3c(cc12)OCCO3` (stereo not drawn) [Example 35.1, 1′-[(2-hydroxypyrimidin-5-yl)methyl]-2,3-dihydrospiro[furo[2,3-g][1,4]benzodioxine-8,3′-indol]-2′(1′H)-one], the melting point was > 250 °C. Moreover, the IC50 in series [1] was 1000 to 10000 nM. Besides, the inhibition at 10 µM in series [2] was < 50%.

Turning to `Cn1cc(CN2C(=O)C3(COc4cc5c(cc43)OCCO5)c3ccccc32)ccc1=O` (stereo not drawn) [Example 36, 1′-[(1-methyl-6-oxo-1,6-dihydropyridin-3-yl)methyl]-2,3-dihydrospiro[furo[2,3-g][1,4]benzodioxine-8,3′-indol]-2′(1′H)-one], the melting point was 205 to 207 °C. In addition, the IC50 in series [1] was 100 to 1000 nM. For the same compound, in series [2], the inhibition at 10 µM was < 50%.

For the compound `Nc1ccc(CN2C(=O)C3(COc4cc5c(cc43)OCCO5)c3ccccc32)cn1` (stereo not drawn) [Example 37, 1′-[(6-aminopyridin-3-yl)methyl]-2,3-dihydrospiro[furo[2,3-g][1,4]benzodioxine-8,3′-indol]-2′(1′H)-one], the melting point was in the range of 117 to 119 °C. Moreover, in series [1], the IC50 lay within 1 to 100 nM. For the same compound, the inhibition at 10 µM in series [2] is < 50%.

The compound `O=C1N(Cc2ccc(N/C=N\O)nc2)c2ccccc2C12COc1cc3c(cc12)OCCO3` (stereo not drawn) [Example 38, N′-hydroxy-N-{5-[(2′-oxo-2,3-dihydrospiro[furo[2,3-g][1,4]benzodioxine-8,3′-indol]-1′(2′H)-yl)methyl]pyridin-2-yl}imidoformamide] displayed a melting point of 231 to 232 °C. For the same compound, the IC50 in series [1] lay in the range of 1 to 100 nM. The inhibition at 10 µM in series [2] was < 50%.

Take `O=C1N(Cc2ccc3ncnn3c2)c2ccccc2C12COc1cc3c(cc12)OCCO3` (stereo not drawn) [Example 39, 1′-([1,2,4]triazolo[1,5-a]pyridin-6-ylmethyl)-2,3-dihydrospiro[furo[2,3-g][1,4]benzodioxine-8,3′-indol]-2′(1′H)-one]: the melting point was in the range of 207 to 209 °C. In addition, the half-maximal inhibitory concentration (IC50) in series [1] fell in the range of 1 to 100 nM. The inhibition at 10 µM in series [2] was > 50%.

With `N#Cc1cccc(CN2C(=O)C3(COc4cc5c(cc43)OCCO5)c3ccccc32)n1` (stereo not drawn) [Example 41, 6-[(2′-oxo-2,3-dihydrospiro[furo[2,3-g][1,4]benzodioxine-8,3′-indol]-1′(2′H)-yl)methyl]pyridine-2-carbonitrile], the melting point lay within 213 to 215 °C. Besides, the IC50 in series [1] lay within 1 to 100 nM. Further, in series [2], the inhibition at 10 µM is < 50%.

Take `COc1ccc(CN2C(=O)C3(COc4cc5onc(N)c5cc43)c3ccccc32)cc1` (stereo not drawn) [Example 44, 3-amino-1′-(4-methoxybenzyl)spiro[furo[3,2-f][1,2]benzisoxazole-5,3′-indol]-2′(1′H)-one]: the melting point fell in the range of 214 to 216 °C. In addition, the IC50 in series [1] lay within 100 to 1000 nM. For the same compound, in series [2], the inhibition at 10 µM was > 50%.

As to `Nc1noc2cc3c(cc12)C1(CO3)C(=O)N(Cc2ccccn2)c2ccccc21` (stereo not drawn) [Example 44.1, 3-amino-1′-(pyridin-2-ylmethyl)spiro[furo[3,2-f][1,2]benzisoxazole-5,3′-indol]-2′(1′H)-one], the melting point is 190 to 192 °C. For the same compound, the IC50 in series [1] is 100 to 1000 nM. In addition, the inhibition at 10 µM in series [2] is < 50%.

`Nc1noc2cc3c(cc12)C1(CO3)C(=O)N(C[C@H]2CCCO2)c2ccccc21` (stereo partly drawn) [Example 44.2, 3-amino-1′-[(2R)-tetrahydrofuran-2-ylmethyl]spiro[furo[3,2-f][1,2]benzisoxazole-5,3′-indol]-2′(1′H)-one] displayed a melting point of 116 to 119 °C. For the same compound, the IC50 in series [1] fell in the range of 1000 to 10000 nM. For the same compound, in series [2], the inhibition at 10 µM is < 50%.

For `Nc1noc2cc3c(cc12)C1(CO3)C(=O)N(Cc2ccccc2C(F)(F)F)c2ccccc21` (stereo not drawn) [Example 44.3, 3-amino-1′-[2-(trifluoromethyl)benzyl]spiro[furo[3,2-f][1,2]benzisoxazole-5,3′-indol]-2′(1′H)-one], the melting point lay within 262 to 264 °C. In addition, in series [1], the IC50 is 1000 to 10000 nM. In addition, in series [2], the inhibition at 10 µM is > 50%.

In the case of `N#Cc1cc2c(cc1O)OCC21C(=O)N(C[C@H]2CCCO2)c2ccccc21` (stereo partly drawn) [Example 45, 6-hydroxy-2′-oxo-1′-[(2R)-tetrahydrofuran-2-ylmethyl]-1′,2′-dihydrospiro[1-benzofuran-3,3′-indole]-5-carbonitrile], the melting point lay within 218 to 221 °C. Moreover, the IC50 in series [1] was 1000 to 10000 nM. Besides, in series [2], the inhibition at 10 µM was < 50%.
